From patent US10251889B2, “Substituted pyrazolo[1,5-a]pyrimidine compounds as Trk kinase inhibitors” (Array BioPharma, Inc., priority 2009, dated 2019)

Biological target: Jak2 (human Jak2 kinase domain, amino acids 808-1132) (Homo sapiens (Human), UniProt O60674)
Test: Jak2 inhibition assay (Omnia kinase assay)
Type: biochemical
Conditions: read-out: Jak2 Enzyme (% inhibition at 1000 nM), Table 1; 1000 nM test compound

Chain of Jak2 (human Jak2 kinase domain, amino acids 808-1132) (O60674 808-1132): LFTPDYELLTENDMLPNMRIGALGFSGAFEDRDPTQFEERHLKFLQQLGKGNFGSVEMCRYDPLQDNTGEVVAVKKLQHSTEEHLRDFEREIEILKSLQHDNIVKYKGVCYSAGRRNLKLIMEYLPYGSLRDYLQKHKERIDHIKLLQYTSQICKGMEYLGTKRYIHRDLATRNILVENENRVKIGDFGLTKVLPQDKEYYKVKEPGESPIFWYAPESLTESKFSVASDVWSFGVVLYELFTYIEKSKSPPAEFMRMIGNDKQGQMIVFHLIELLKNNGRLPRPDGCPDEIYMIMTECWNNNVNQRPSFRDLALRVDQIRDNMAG

inhibition at 1 µM | Compound
54.4% | COc1ncc(F)cc1[C@H]1CCCN1c1ccn2ncc(C(=O)NC(C)(C)CF)c2n1 [Example 81, (R)-5-(2-(5-fluoro-2-methoxypyridin-3-yl)pyrrolidin-1-yl)-N-(1-fluoro-2-methylpropan-2-yl)pyrazolo[1,5-a]pyrimidine-3-carboxamide]
37.2% | O=C(NC1CC1)c1cnn2ccc(N3CCC[C@@H]3c3cc(F)ccc3OCCN3CCOCC3)nc12 [Example 87, (R)—N-cyclopropyl-5-(2-(5-fluoro-2-(2-morpholinoethoxy)phenyl)pyrrolidin-1-yl)pyrazolo[1,5-a]pyrimidine-3-carboxamide]
72.7% | COc1ccc(F)cc1[C@H]1CCCN1c1ccn2ncc(C(=O)NC3CC3)c2n1 [Example 48, (R)—N-cyclopropyl-5-(2-(5-fluoro-2-methoxyphenyl)pyrrolidin-1-yl)pyrazolo[1,5-a]pyrimidine-3-carboxamide]
67.3% | COCCOc1ccc(F)cc1[C@H]1CCCN1c1ccn2ncc(C(=O)NC3CC3)c2n1 [Example 90, (R)—N-cyclopropyl-5-(2-(5-fluoro-2-(2-methoxyethoxy)phenyl)pyrrolidin-1-yl)pyrazolo[1,5-a]pyrimidine-3-carboxamide]
22.3% | CC1(C)CC[C@H](c2cc(F)ccc2F)N1c1ccn2ncc(C(N)=O)c2n1 [Example 67, (R)-5-(5-(2,5-difluorophenyl)-2,2-dimethylpyrrolidin-1-yl)pyrazolo[1,5-a]pyrimidine-3-carboxamide]
3.3% | O=C(NCC(F)F)c1cnn2ccc(N3CCC[C@@H]3c3cncc(F)c3)nc12 [Example 134, (R)-N-(2,2-difluoroethyl)-5-(2-(5-fluoropyridin-3-yl)pyrrolidin-1-yl)pyrazolo[1,5-a]pyrimidine-3-carboxamide]
4.7% | C[C@@H](CO)NC(=O)c1cnn2ccc(N3CCC[C@@H]3c3cncc(F)c3)nc12 [Example 116, 5-((R)-2-(5-fluoropyridin-3-yl)pyrrolidin-1-yl)-N-((S)-1-hydroxypropan-2-yl)pyrazolo[1,5-a]pyrimidine-3-carboxamide]
29.7% | CC1(NC(=O)c2cnn3ccc(N4[C@H](CO)CC[C@@H]4c4cncc(F)c4)nc23)CC1 [Example 214, 5-((2R,5S)-2-(5-fluoropyridin-3-yl)-5-(hydroxymethyl)pyrrolidin-1-yl)-N-(1-methylcyclopropyl)pyrazolo[1,5-a]pyrimidine-3-carboxamide]
-0.9% | NCCCNC(=O)c1cnn2ccc(N3CCC[C@@H]3c3cc(F)c[nH]c3=O)nc12 [Example 142, (R)—N-(3-aminopropyl)-5-(2-(5-fluoro-2-oxo-1,2-dihydropyridin-3-yl)pyrrolidin-1-yl)pyrazolo[1,5-a]pyrimidine-3-carboxamide]
28.3% | CC(C)NC(=O)c1cnn2ccc(N3[C@H](CO)CC[C@@H]3c3cncc(F)c3)nc12 [Example 215, 5-((2R,5S)-2-(5-fluoropyridin-3-yl)-5-(hydroxymethyl)pyrrolidin-1-yl)-N-isopropylpyrazolo[1,5-a]pyrimidine-3-carboxamide]
-0.5% | C[C@@H](O)CNC(=O)c1cnn2ccc(N3CCC[C@@H]3c3cncc(F)c3)nc12 [Example 110, 5-((R)-2-(5-fluoropyridin-3-yl)pyrrolidin-1-yl)-N-((R)-2-hydroxypropyl)pyrazolo[1,5-a]pyrimidine-3-carboxamide]
26.8% | O=C(NCCO)c1cnn2ccc(N3CCCC3c3cc(F)ccc3F)nc12 (stereo not drawn) [Example 165, 5-(2-(2,5-difluorophenyl)pyrrolidin-1-yl)-N-(2-hydroxyethyl)pyrazolo[1,5-a]pyrimidine-3-carboxamide]
7.2% | CC1(C)OCC(COc2ccc(F)cc2[C@H]2CCCN2c2ccn3ncc(C(N)=O)c3n2)O1 (stereo partly drawn) [Example 205, 5-((2R)-2-(2-((2,2-dimethyl-1,3-dioxolan-4-yl)methoxy)-5-fluorophenyl)pyrrolidin-1-yl)pyrazolo[1,5-a]pyrimidine-3-carboxamide]
-1.2% | Nc1ncc(F)cc1[C@H]1CCCN1c1ccn2ncc(C(=O)N3CCC3)c2n1 [Example 221, (R)-(5-(2-(2-amino-5-fluoropyridin-3-yl)pyrrolidin-1-yl)pyrazolo[1,5-a]pyrimidin-3-yl)(azetidin-1-yl)methanone]
12.6% | C[C@H](CO)NC(=O)c1cnn2ccc(N3CCC[C@@H]3c3cncc(F)c3)nc12 [Example 115, 5-((R)-2-(5-fluoropyridin-3-yl)pyrrolidin-1-yl)-N-((R)-1-hydroxypropan-2-yl)pyrazolo[1,5-a]pyrimidine-3-carboxamide]
51.9% | O=C(N[C@H]1CC[C@H](O)C1)c1cnn2ccc(N3CCC[C@@H]3c3cc(F)ccc3F)nc12 [Example 169, 5-((R)-2-(2,5-difluorophenyl)pyrrolidin-1-yl)-N-((1S,3S)-3-hydroxycyclopentyl)pyrazolo[1,5-a]pyrimidine-3-carboxamide]
7% | COc1ncc(F)cc1[C@H]1CCCN1c1ccn2ncc(C(=O)NC[C@H](O)CO)c2n1 [Example 143, N—((S)-2,3-dihydroxypropyl)-5-((R)-2-(5-fluoro-2-methoxypyridin-3-yl)pyrrolidin-1-yl)pyrazolo[1,5-a]pyrimidine-3-carboxamide]

inhibition at 1 µM | Compound
31.9% | Cn1cc(F)cc([C@H]2CCCN2c2ccn3ncc(C(=O)NCC4CC4)c3n2)c1=O [Example 232, (R)-N-(cyclopropylmethyl)-5-(2-(5-fluoro-1-methyl-oxo-1,2-dihydropyridin-3-yl)pyrrolidin-1-yl)pyrazolo[1,5-a]pyrimidine-3-carboxamide]
3.8% | C[C@H](O)[C@H](CO)NC(=O)c1cnn2ccc(N3CCC[C@@H]3c3cc(F)ccc3F)nc12 [Example 175, 5-((R)-2-(2,5-difluorophenyl)pyrrolidin-1-yl)-N-((2S,3S)-1,3-dihydroxybutan-2-yl)pyrazolo[1,5-a]pyrimidine-3-carboxamide]
39.5% | CC(C)(C)NC(=O)c1cnn2ccc(N3CCC[C@@H]3c3cc(F)ccc3F)nc12 [Example 1, (R)—N-tert-butyl-5-(2-(2,5-difluorophenyl)pyrrolidin-1-yl)pyrazolo[1,5-a]pyrimidine-3-carboxamide]
32.3% | O=C(NC1CC1)c1cnn2ccc(N3CCC[C@@H]3c3cc(F)ccc3OCC(O)CO)nc12 (stereo partly drawn) [Example 210, N-cyclopropyl-5-((2R)-2-(2-(2,3-dihydroxypropoxy)-5-fluorophenyl)pyrrolidin-1-yl)pyrazolo[1,5-a]pyrimidine-3-carboxamide]
53.3% | Cn1cc(F)cc([C@H]2CCCN2c2ccn3ncc(C(=O)NC4CCC4)c3n2)c1=O [Example 230, (R)-N-cyclobutyl-5-(2-(5-fluoro-1-methyl-2-oxo-1,2-dihydropyridin-3-yl)pyrrolidin-1-yl)pyrazolo[1,5-a]pyrimidine-3-carboxamide]
69.1% | C[C@H](NC(=O)c1cnn2ccc(N3CCC[C@@H]3c3cc(F)cn(C)c3=O)nc12)C1CC1 [Example 236, N-((S)-1-cyclopropylethyl)-5-((R)-2-(5-fluoro-1-methyl-2-oxo-1,2-dihydropyridin-3-yl)pyrrolidin-1-yl)pyrazolo[1,5-a]pyrimidine-3-carboxamide]
99.9% | O=C(N[C@H]1CC[C@H](C(=O)O)CC1)c1cnn2ccc(N3CCC[C@@H]3c3cc(F)ccc3F)nc12 [Example 33, Trans-4-(5-((R)-2-(2,5-difluorophenyl)pyrrolidin-1-yl)pyrazolo[1,5-a]pyrimidine-3-carboxamido)cyclohexanecarboxylic Acid]
5.4% | NC(=O)c1cnn2ccc(N3CCC[C@@H]3c3cc(F)cc(OCC(O)CO)c3)nc12 (stereo partly drawn) [Example 209, 5-((2R)-2-(3-(2,3-dihydroxypropoxy)-5-fluorophenyl)pyrrolidin-1-yl)pyrazolo[1,5-a]pyrimidine-3-carboxamide]
33.8% | CNC(=O)c1cnn2ccc(N3CCC[C@@H]3c3cc(F)cnc3OC)nc12 [Example 153, (R)-5-(2-(5-fluoro-2-methoxypyridin-3-yl)pyrrolidin-1-yl)-N-methylpyrazolo[1,5-a]pyrimidine-3-carboxamide]
8.4% | Cc1ncc(F)cc1[C@H]1CCCN1c1ccn2ncc(C(=O)NC3(CO)CC3)c2n1 [Example 193, (R)-5-(2-(5-fluoro-2-methylpyridin-3-yl)pyrrolidin-1-yl)-N-(1-(hydroxymethyl)cyclopropyl)-pyrazolo[1,5-a]pyrimidine-3-carboxamide]
10.1% | O=C(O)C1CCN(C(=O)c2cnn3ccc(N4CCC[C@@H]4c4cc(F)ccc4F)nc23)CC1 [Example 11, (R)-1-(5-(2-(2,5-difluorophenyl)pyrrolidin-1-yl)pyrazolo[1,5-a]pyrimidine-3-carbonyl)piperidine-4-carboxylic Acid]
13.8% | C[C@H](O)CNC(=O)c1cnn2ccc(N3CCC[C@@H]3c3cc(F)ccc3F)nc12 [Example 166, 5-((R)-2-(2,5-difluorophenyl)pyrrolidin-1-yl)-N-(2-hydroxypropyl)pyrazolo[1,5-a]pyrimidine-3-carboxamide]
4.8% | NC(=O)c1cnn2ccc(N3CCC[C@@H]3c3cc(F)cc(OCCN4CCOCC4)c3)nc12 [Example 76, (R)-5-(2-(3-fluoro-5-(2-morpholinoethoxy)phenyl)pyrrolidin-1-yl)pyrazolo[1,5-a]pyrimidine-3-carboxamide]
7.7% | CC(C)(C)NC(=O)c1cnn2ccc(N3C[C@H](O)C[C@@H]3c3cccc(F)c3)nc12 [Example 42, N-tert-butyl-5-((2R,4R)-2-(3-fluorophenyl)-4-hydroxypyrrolidin-1-yl)pyrazolo[1,5-a]pyrimidine-3-carboxamide]
11.8% | Cc1ncc(F)cc1[C@H]1CCCN1c1ccn2ncc(C(=O)NC(C)C)c2n1 [Example 184, (R)-5-(2-(5-fluoro-2-methylpyridin-3-yl)pyrrolidin-1-yl)-N-isopropylpyrazolo[1,5-a]pyrimidine-3-carboxamide]
33.1% | COCCOc1ccc(F)cc1[C@H]1CCCN1c1ccn2ncc(C(N)=O)c2n1 [Example 89, (R)-5-(2-(5-fluoro-2-(2-methoxyethoxy)phenyl)pyrrolidin-1-yl)pyrazolo[1,5-a]pyrimidine-3-carboxamide]
